Activity calls are given as the source filed them. The calls are words filed in the database; no cut-off is given here.
Columns and labels:
[1] = Stability of the compound in NaBH4/ethanol assessed as oxidation measured after 24 hrs at room temperature; assay type: physicochemical
[2] = target: Metallo-beta-lactamase type 2 (Bacteria) (UniProt C7C422); experiment: Inhibition of NDM-1 (unknown origin) at 10 uM relative to control
[3] = target: Metallo-beta-lactamase type 2 (Bacteria) (UniProt C7C422); experiment: Uncompetitive inhibition of NDM-1 (unknown origin) using penicillin G as substrate by Michaelis-Menten equation based kinetic analysis
Bacteria [4] = experiment: Inhibition of AIM-1 (unknown origin) at 10 uM relative to control
Escherichia coli [5] = experiment: Antagonistic antibacterial activity against Escherichia coli expressing NDM-1 in presence of meropenem by checkerboard sensitivity assay; assay type: functional, organism-based
Escherichia coli [6] = experiment: Synergistic antibacterial activity against Escherichia coli expressing NDM-1 in presence of cefuroxime by checkerboard sensitivity assay; assay type: functional, organism-based
Escherichia coli [7] = experiment: Synergistic antibacterial activity against Escherichia coli expressing CphA in presence of meropenem by checkerboard sensitivity assay; assay type: functional, organism-based
Bacteria [8] = experiment: Uncompetitive inhibition of AIM-1 (unknown origin) using cefuroxime as substrate by Michaelis-Menten equation based kinetic analysis
[9] = Inhibition of CphA (unknown origin) using meropenem as substrate; design: species or system Bacteria
Escherichia coli [10] = experiment: Antagonistic antibacterial activity against Escherichia coli expressing AIM-1 in presence of cefuroxime by checkerboard sensitivity assay; assay type: functional, organism-based
Bacteria [11] = experiment: Competitive inhibition of AIM-1 (unknown origin) using cefuroxime as substrate by Michaelis-Menten equation based kinetic analysis
Escherichia coli [12] = experiment: Synergistic antibacterial activity against Escherichia coli expressing CphA in presence of penicillin G by checkerboard sensitivity assay; assay type: functional, organism-based
Escherichia coli [13] = experiment: Antagonistic antibacterial activity against Escherichia coli expressing AIM-1 in presence of penicillin G by checkerboard sensitivity assay; assay type: functional, organism-based
Escherichia coli [14] = experiment: Synergistic antibacterial activity against Escherichia coli expressing CphA in presence of cefuroxime by checkerboard sensitivity assay; assay type: functional, organism-based
Escherichia coli [15] = experiment: Antagonistic antibacterial activity against Escherichia coli expressing AIM-1 in presence of meropenem by checkerboard sensitivity assay; assay type: functional, organism-based
Escherichia coli [16] = experiment: Synergistic antibacterial activity against Escherichia coli expressing NDM-1 in presence of penicillin G by checkerboard sensitivity assay; assay type: functional, organism-based
[17] = target: Metallo-beta-lactamase type 2 (Bacteria) (UniProt C7C422); experiment: Competitive inhibition of NDM-1 (unknown origin) using penicillin G as substrate by Michaelis-Menten equation based kinetic analysis
Escherichia coli [18] = experiment: Synergistic antibacterial activity against Escherichia coli expressing AIM-1 in presence of penicillin G by checkerboard sensitivity assay; assay type: functional, organism-based
Escherichia coli [19] = experiment: Synergistic antibacterial activity against Escherichia coli expressing AIM-1 in presence of cefuroxime by checkerboard sensitivity assay; assay type: functional, organism-based
Escherichia coli [20] = experiment: Synergistic antibacterial activity against Escherichia coli expressing AIM-1 in presence of meropenem by checkerboard sensitivity assay; assay type: functional, organism-based

Chain of Metallo-beta-lactamase type 2 (Bacteria) (C7C422 whole entry): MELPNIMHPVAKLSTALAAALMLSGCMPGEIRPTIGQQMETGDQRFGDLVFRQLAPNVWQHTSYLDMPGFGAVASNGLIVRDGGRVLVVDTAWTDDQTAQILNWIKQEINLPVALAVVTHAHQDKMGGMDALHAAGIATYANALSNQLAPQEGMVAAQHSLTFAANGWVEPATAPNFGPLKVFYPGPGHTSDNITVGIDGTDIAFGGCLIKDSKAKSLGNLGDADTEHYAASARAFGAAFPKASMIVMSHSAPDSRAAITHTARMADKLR

SMILES | inhibition [2] | Kiuc [3] [µM] | inhibition (Bacteria [4]) | Kiuc (Bacteria [8]) [µM] | Kic (Bacteria [11]) [µM] | Kic [17] [µM] | further results
N#Cc1c(-c2ccccc2)c(-c2ccccc2)n(Cc2ccccc2)c1NCc1ccccc1 | 41% | 2.7 | 32% |  |  |  | Stability [1]: Stable
N#Cc1c(-c2ccccc2)c(-c2ccccc2)n(Cc2ccccc2)c1/N=C/c1cccs1 | 57% | 11 | 42% | 35 | 4.5 | 1.7 | Activity (Escherichia coli [5]): Active; Activity (Escherichia coli [6]): Active; Activity (Escherichia coli [7]): Active; IC50 [9]: 57 µM; Activity (Escherichia coli [10]): Active; Activity (Escherichia coli [12]): Active; Activity (Escherichia coli [13]): Active; Activity (Escherichia coli [14]): Active; Activity (Escherichia coli [15]): Active; Activity (Escherichia coli [16]): Active
N#Cc1c(-c2ccccn2)c(-c2ccccn2)n(Cc2ccccc2)c1N | inactive |  | inactive |  |  |  | 
N#Cc1c(-c2ccccc2)c(-c2ccccc2)n(Cc2ccccc2)c1/N=C/c1ccc([N+](=O)[O-])cc1 | 45% |  | 40% |  |  |  | 
N#Cc1c(-c2ccccc2)c(-c2ccccc2)n(Cc2ccccc2)c1NC(=O)c1ccccc1 | 47% | 5 | 42% | 19 | 11 | 9 | Activity (Escherichia coli [5]): Active; Activity (Escherichia coli [6]): Active; Activity (Escherichia coli [7]): Active; Activity (Escherichia coli [18]): Active; Activity (Escherichia coli [10]): Active; Activity (Escherichia coli [12]): Active; Activity (Escherichia coli [14]): Active; Activity (Escherichia coli [15]): Active; Activity (Escherichia coli [16]): Active
N#Cc1c(-c2ccccc2)c(-c2ccccc2)n(Cc2ccccc2)c1/N=C/c1ccc(O)cc1 | 49% | 0.9 | 61% | 4.7 | 4.4 | 1.3 | Activity (Escherichia coli [5]): Active; Activity (Escherichia coli [19]): Active; Activity (Escherichia coli [6]): Active; Activity (Escherichia coli [7]): Active; IC50 [9]: 45 µM; Activity (Escherichia coli [20]): Active; Activity (Escherichia coli [12]): Active; Activity (Escherichia coli [13]): Active; Activity (Escherichia coli [14]): Active; Activity (Escherichia coli [16]): Active
N#Cc1c(-c2ccccc2)c(-c2ccccc2)n(Cc2ccccc2)c1NCc1cccs1 | 29% |  | 25% |  |  |  | 
N#Cc1c(-c2ccc(C(=O)O)cc2)c(-c2ccc(C(=O)O)cc2)n(Cc2ccccc2)c1N | inactive |  | inactive |  |  |  | 
N#Cc1c(-c2ccccc2)c(-c2ccccc2)n(Cc2ccccc2)c1/N=C/c1ccc2ccccc2c1 | 50% |  | 26% |  |  |  | 
COC(=O)c1ccc(-c2c(C#N)c(N)n(Cc3ccccc3)c2-c2ccc(C(=O)OC)cc2)cc1 | inactive |  | inactive |  |  |  | 
N#Cc1c(-c2ccccc2)c(-c2ccccc2)n(Cc2ccccc2)c1/N=C/c1ccc(C(=O)O)cc1 | 40% |  | 39% |  |  |  | 
N#Cc1c(-c2ccccc2)c(-c2ccccc2)n(Cc2ccccc2)c1/N=C/c1cccnc1 | 28% |  | 11% |  |  |  | 
N#Cc1c(-c2ccccc2)c(-c2ccccc2)n(Cc2ccccc2)c1/N=C/c1ccccc1 | 38% | 6 | 42% | 11 | 3.6 | 3.2 | Activity (Escherichia coli [5]): Active; Activity (Escherichia coli [19]): Active; Activity (Escherichia coli [6]): Active; Activity (Escherichia coli [7]): Active; IC50 [9]: 75 µM; Activity (Escherichia coli [20]): Active; Activity (Escherichia coli [12]): Active; Activity (Escherichia coli [13]): Active; Activity (Escherichia coli [14]): Active; Activity (Escherichia coli [16]): Active
CC(=O)Nc1ccc(/C=N/c2c(C#N)c(-c3ccccc3)c(-c3ccccc3)n2Cc2ccccc2)cc1 | 14% |  | 10% |  |  |  | 
COC(=O)c1ccc(/C=N/c2c(C#N)c(-c3ccccc3)c(-c3ccccc3)n2Cc2ccccc2)cc1 | 27% | 4.4 | 19% | 72 | 6.4 | 34 | 

Reference: ChEMBL document CHEMBL5365406, “Inhibitors for metallo-β-lactamases from the B1 and B3 subgroups provide an avenue to combat a major mechanism of antibiotic resistance” (Bioorg Med Chem Lett, 2023)
